In one assay the target is T1, M1 muscarinic receptor (Homo sapiens, UniProt P11229).
T1 construct: expressed in transfected cells; host or cells: CHO (M1-CHO)
T1 sequence (P11229 1-460): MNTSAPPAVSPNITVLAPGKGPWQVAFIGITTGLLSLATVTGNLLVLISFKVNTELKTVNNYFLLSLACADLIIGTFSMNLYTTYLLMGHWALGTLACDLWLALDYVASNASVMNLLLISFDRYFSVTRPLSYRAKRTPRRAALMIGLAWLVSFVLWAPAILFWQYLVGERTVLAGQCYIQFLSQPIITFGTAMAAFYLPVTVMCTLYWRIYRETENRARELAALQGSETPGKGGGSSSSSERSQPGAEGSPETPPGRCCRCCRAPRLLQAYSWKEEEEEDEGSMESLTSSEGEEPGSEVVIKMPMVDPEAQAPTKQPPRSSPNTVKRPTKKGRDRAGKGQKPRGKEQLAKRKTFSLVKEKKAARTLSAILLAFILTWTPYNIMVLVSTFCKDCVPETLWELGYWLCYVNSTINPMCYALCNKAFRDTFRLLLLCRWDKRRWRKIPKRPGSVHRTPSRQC
In words: Functional mobilization of intracellular calcium (FLIPR) in M1-CHO cells. To be noted: Table 4; for Emax: 100% efficacy is the maximum response obtained with the Carbachol control; for M1 Activity: modulating M1 receptor. It counts as cell-based. The essentials:
(§1)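 FLIPR Ca2+ read, ex 488/em 540 nm, 60 s. Recombinant CHO lines (M1 or M4), dye-loaded Fluo-3 AM 60-90 min at 37° C, probenecid 1 mM, pH 7.4. Agonist: compound alone; inhibition: 15 min compound pre-incubation, then carbachol at EC80 for that subtype.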
In general terms: Calcium flux is commonly read through the fluorescence of an indicator in the cells.

Another assay concerns the target T2, M4 muscarinic receptor (Homo sapiens, UniProt P08173).
T2 construct: expressed in transfected cells; host or cells: CHO (M4-CHO)
T2 sequence (P08173 1-479): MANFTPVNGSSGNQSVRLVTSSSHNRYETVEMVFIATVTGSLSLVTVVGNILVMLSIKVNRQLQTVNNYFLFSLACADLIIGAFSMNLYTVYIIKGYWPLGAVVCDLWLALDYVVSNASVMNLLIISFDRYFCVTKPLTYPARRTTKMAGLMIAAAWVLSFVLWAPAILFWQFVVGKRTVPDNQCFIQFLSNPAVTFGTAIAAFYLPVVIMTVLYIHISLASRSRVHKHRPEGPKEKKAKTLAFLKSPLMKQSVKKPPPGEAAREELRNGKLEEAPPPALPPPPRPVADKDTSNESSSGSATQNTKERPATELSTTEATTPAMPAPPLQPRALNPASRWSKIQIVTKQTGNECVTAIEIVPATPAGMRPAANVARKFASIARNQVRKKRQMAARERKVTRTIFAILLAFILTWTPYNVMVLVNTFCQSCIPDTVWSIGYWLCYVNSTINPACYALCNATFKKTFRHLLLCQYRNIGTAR
The experiment in a line: Functional mobilization of intracellular calcium (FLIPR) in M4-CHO cells. As to conditions: Table 4; for Emax: 100% efficacy is the maximum response obtained with the Carbachol control; for M4 Activity: modulating M4 receptor. It is filed as cell-based. The essentials:
as §1

Broadly, the Emax is the greatest response seen or fitted, relative to the assay's reference. As to `CN(C)C(=O)N[C@H]1CCC2(CCN(C3CCCCCC3)CC2)c2ccccc21` [compound 617], at M1 muscarinic receptor, the Emax is 25 to 100%; the “M1 Activity” value is “xx (activity was measured to be between 2.0 μM and 5.0 μM)”. At M4 muscarinic receptor, the Emax was greater than 100% and the “M4 Activity” value is recorded as “xxx (activity was measured to be less than 2.0 μM)”.
Take `CCC=CCOC(=O)N1C2CCC1CC(N1CCC3(CC1)CN(C(C)=O)c1ccccc13)C2` (stereo not drawn) [compound 618]: on M1 muscarinic receptor, the Emax fell in the range of 25 to 100% and the “M1 Activity” value was “xxx (activity was measured to be less than 2.0 μM)”. Moreover, at M4 muscarinic receptor, the Emax fell in the range of 25 to 100% and the “M4 Activity” value is on record as “xxx (activity was measured to be less than 2.0 μM)”.
As to `CN(C)C(=O)N1CC2(CCN(C3CCN(C(=O)c4ccon4)CC3)CC2)c2cc(F)ccc21` [compound 619], on M1 muscarinic receptor, the Emax was in the range of 25 to 100%; the “M1 Activity” value is “xx (activity was measured to be between 2.0 μM and 5.0 μM)”. Moreover, at M4 muscarinic receptor, the Emax was in the range of 25 to 100% and the “M4 Activity” value is “xxx (activity was measured to be less than 2.0 μM)”.
Turning to `CCCC#CCOC(=O)N1CCC(N2CCC3(CC2)CN(C(C)=O)c2ccccc23)CC1` [compound 620], on M1 muscarinic receptor, the Emax fell in the range of 25 to 100% and the “M1 Activity” value is recorded as “x (activity was measured to be greater than 5.0 μM)”. Moreover, on M4 muscarinic receptor, the Emax is less than 25% and the “M4 Activity” value is given as “x (activity was measured to be greater than 5.0 μM)”.
`O=C1CCCCC1N1CC2(CCN(C3CC4CCC(C4)C3)CC2)c2cc(F)ccc21` (stereo not drawn) [compound 621]: at M1 muscarinic receptor, the Emax was 25 to 100%; the “M1 Activity” value was “xx (activity was measured to be between 2.0 μM and 5.0 μM)”. For the same compound, at M4 muscarinic receptor, the Emax lay within 25 to 100% and the “M4 Activity” value is “xxx (activity was measured to be less than 2.0 μM)”.
As to `Cc1ccc2c(c1)C1(CCN(CC3CC4CCC(C4)C3)CC1)CN2` (stereo not drawn) [compound 622], at M1 muscarinic receptor, the Emax is less than 25% and the “M1 Activity” value was “x (activity was measured to be greater than 5.0 μM)”. Also, on M4 muscarinic receptor, the Emax is less than 25% and the “M4 Activity” value is reported as “x (activity was measured to be greater than 5.0 μM)”.
Turning to `CC(=O)N1CC2(CCN(C3CC4CCC(C3)N4C(=O)O[C@H]3CCOC3)CC2)c2ccccc21` (stereo partly drawn) [compound 623], at M1 muscarinic receptor, the Emax was in the range of 25 to 100% and the “M1 Activity” value is reported as “xxx (activity was measured to be less than 2.0 μM)”. Further, on M4 muscarinic receptor, the Emax is 25 to 100% and the “M4 Activity” value is “xxx (activity was measured to be less than 2.0 μM)”.
For `CCC(C)(C)C1CCC(N2CCC3(CC[C@H](NC(C)=O)c4ccccc43)CC2)CC1` (stereo partly drawn) [compound 624], on M1 muscarinic receptor, the Emax was in the range of 25 to 100% and the “M1 Activity” value is “xxx (activity was measured to be less than 2.0 μM)”. At M4 muscarinic receptor, the Emax is less than 25% and the “M4 Activity” value is listed as “x (activity was measured to be greater than 5.0 μM)”.
The like results for `CN(C)C(=O)N1CC2(CCN(C[C@@H]3CCN(C(=O)OCC(F)F)C3)CC2)c2cc(F)ccc21` [compound 625] were, in that order, 25 to 100%, “xxx (activity was measured to be less than 2.0 μM)”, greater than 100% and “xxx (activity was measured to be less than 2.0 μM)”.
With `CCOC(=O)N1CCC(N2CCC3(CC2)CN(C(C)=O)c2ccccc23)CC1` [compound 626], at M1 muscarinic receptor, the Emax was in the range of 25 to 100% and the “M1 Activity” value is given as “xxx (activity was measured to be less than 2.0 μM)”. For the same compound, on M4 muscarinic receptor, the Emax is 25 to 100% and the “M4 Activity” value is given as “xxx (activity was measured to be less than 2.0 μM)”.
On to `CS(=O)(=O)N[C@H]1CCC2(CCN(CC3CC4C=CC3C4)CC2)c2ccccc21` (stereo partly drawn) [compound 627], for which, at M1 muscarinic receptor, the maximum response (Emax) lay in the range of 25 to 100% and the “M1 Activity” value was “xxx (activity was measured to be less than 2.0 μM)”. For the same compound, on M4 muscarinic receptor, the Emax fell in the range of 25 to 100% and the “M4 Activity” value was “xxx (activity was measured to be less than 2.0 μM)”.
For the compound `COC(=O)N1CCCC(N2CCC3(CC2)CN(C(=O)N(C)C)c2ccc(F)cc23)CC1` (stereo not drawn) [compound 628], at M1 muscarinic receptor, the Emax lay in the range of 25 to 100% and the “M1 Activity” value is reported as “xxx (activity was measured to be less than 2.0 μM)”. At M4 muscarinic receptor, the Emax is 25 to 100% and the “M4 Activity” value was “xxx (activity was measured to be less than 2.0 μM)”.
`CCOC(=O)N1CCC(N2CCC3(CC2)CN(C(C)=O)c2c(-c4ccc(C(N)=O)cc4)cccc23)CC1` [compound 629]: at M1 muscarinic receptor, the Emax was 25 to 100%; the “M1 Activity” value was “xx (activity was measured to be between 2.0 μM and 5.0 μM)”. Moreover, on M4 muscarinic receptor, the Emax lay within 25 to 100%; the “M4 Activity” value was “xx (activity was measured to be between 2.0 μM and 5.0 μM)”.
For `CCCOC(=O)N1CCC(N2CCC3(CC2)CN(C(C)=O)c2ccc(F)cc23)C1` (stereo not drawn) [compound 632], on M1 muscarinic receptor, the Emax is less than 25% and the “M1 Activity” value is on record as “x (activity was measured to be greater than 5.0 μM)”. On M4 muscarinic receptor, the Emax is less than 25% and the “M4 Activity” value is on record as “x (activity was measured to be greater than 5.0 μM)”.
In the case of `CN(C)C(=O)N1CC2(CCN(C3CCN(C(=O)CCC(F)(F)F)CC3)CC2)c2cc(F)ccc21` [compound 633], on M1 muscarinic receptor, the Emax was 25 to 100%; the “M1 Activity” value was “xx (activity was measured to be between 2.0 μM and 5.0 μM)”. In addition, at M4 muscarinic receptor, the Emax was less than 25% and the “M4 Activity” value is “x (activity was measured to be greater than 5.0 μM)”.
With `CC(=O)N1CC2(CCN(C3CCN(C(=O)OC(C)C)C3)CC2)c2cc(F)ccc21` (stereo not drawn) [compound 634], on M1 muscarinic receptor, the Emax is less than 25% and the “M1 Activity” value is recorded as “x (activity was measured to be greater than 5.0 μM)”. At M4 muscarinic receptor, the Emax is less than 25% and the “M4 Activity” value is listed as “x (activity was measured to be greater than 5.0 μM)”.
Consider `CC(=O)N[C@H]1CCC2(CCN(CC3CCC3)CC2)c2ccccc21` [compound 636], for which, at M1 muscarinic receptor, the Emax lay within 25 to 100% and the “M1 Activity” value was “xxx (activity was measured to be less than 2.0 μM)”. Further, at M4 muscarinic receptor, the Emax was in the range of 25 to 100% and the “M4 Activity” value was “xxx (activity was measured to be less than 2.0 μM)”.
Regarding `CC#CCOC(=O)N1CC[C@H](CN2CCC3(CC2)CN(C(C)=O)c2ccccc23)C1` [compound 637], on M1 muscarinic receptor, the Emax was greater than 100% and the “M1 Activity” value is reported as “xxx (activity was measured to be less than 2.0 μM)”. For the same compound, on M4 muscarinic receptor, the Emax fell in the range of 25 to 100% and the “M4 Activity” value was “xxx (activity was measured to be less than 2.0 μM)”.
In the case of `CC(=O)N[C@H]1CC2(CCN(C3CCC(C(C)(C)C)CC3)CC2)c2ccccc21` (stereo partly drawn) [compound 638], at M1 muscarinic receptor, the maximal response (Emax) is less than 25% and the “M1 Activity” value is given as “x (activity was measured to be greater than 5.0 μM)”. For the same compound, on M4 muscarinic receptor, the Emax was less than 25% and the “M4 Activity” value is on record as “x (activity was measured to be greater than 5.0 μM)”.
Turning to `O=C(N[C@H]1CC2(CCN(CC3CCCCC3)CC2)c2ccccc21)c1ccoc1` [compound 639], on M1 muscarinic receptor, the Emax was 25 to 100% and the “M1 Activity” value is listed as “x (activity was measured to be greater than 5.0 μM)”. For the same compound, at M4 muscarinic receptor, the Emax is less than 25% and the “M4 Activity” value is “x (activity was measured to be greater than 5.0 μM)”.
`CC(=O)N[C@H]1CC2(CCN(CC3CC4CCC3C4)C2)c2ccc(F)cc21` (stereo partly drawn) [compound 640]: on M1 muscarinic receptor, the Emax was 25 to 100% and the “M1 Activity” value is given as “xxx (activity was measured to be less than 2.0 μM)”. Moreover, on M4 muscarinic receptor, the maximal response (Emax) was 25 to 100% and the “M4 Activity” value is recorded as “xxx (activity was measured to be less than 2.0 μM)”.
Consider `CC(=O)N[C@H]1CC2(CCN(C3CC(C)(C)CC(C)(C)C3)CC2)c2ccccc21` [compound 641], for which, on M1 muscarinic receptor, the maximum response (Emax) was less than 25% and the “M1 Activity” value is recorded as “x (activity was measured to be greater than 5.0 μM)”. In addition, on M4 muscarinic receptor, the Emax was less than 25% and the “M4 Activity” value is on record as “x (activity was measured to be greater than 5.0 μM)”.
Consider `c1ccc2c(c1)CCCC21CCN(C2C[C@@H]3CC[C@H]2C3)CC1` (stereo partly drawn) [compound 642], for which, at M1 muscarinic receptor, the Emax lay in the range of 25 to 100% and the “M1 Activity” value is “x (activity was measured to be greater than 5.0 μM)”. For the same compound, at M4 muscarinic receptor, the Emax was greater than 100% and the “M4 Activity” value is listed as “xxx (activity was measured to be less than 2.0 μM)”.
The like results for `COc1cc2c(cc1OC)C1(CCN(C3CCCCC3)CC1)C[C@@H]2N(C(C)=O)[C@@H](C)c1ccccc1` [compound 643] were, in that order, less than 25%, “x (activity was measured to be greater than 5.0 μM)”, less than 25% and “x (activity was measured to be greater than 5.0 μM)”.

Source of the values: patent publication US7786141B2 (Vertex Pharmaceuticals Incorporated, priority 2004, dated 2010).
